For 86 compounds, IC50 results are on record in patent US7989464B2, “mGluR1 antagonists as therapeutic agents” (Schering Corporation, priority 2004, dated 2011).

As usually defined, the pIC50 is the negative decadic logarithm of the IC50, by convention in mol/L.

pIC50: −log10 of the molar value. A value given as a limit tells only on which side of the number the result lay.

The target in the first test is T1, hmGluR1 receptor (Homo sapiens, UniProt Q13255).
T1 construct: expressed in transfected cells
T1 sequence (Q13255 19-1194): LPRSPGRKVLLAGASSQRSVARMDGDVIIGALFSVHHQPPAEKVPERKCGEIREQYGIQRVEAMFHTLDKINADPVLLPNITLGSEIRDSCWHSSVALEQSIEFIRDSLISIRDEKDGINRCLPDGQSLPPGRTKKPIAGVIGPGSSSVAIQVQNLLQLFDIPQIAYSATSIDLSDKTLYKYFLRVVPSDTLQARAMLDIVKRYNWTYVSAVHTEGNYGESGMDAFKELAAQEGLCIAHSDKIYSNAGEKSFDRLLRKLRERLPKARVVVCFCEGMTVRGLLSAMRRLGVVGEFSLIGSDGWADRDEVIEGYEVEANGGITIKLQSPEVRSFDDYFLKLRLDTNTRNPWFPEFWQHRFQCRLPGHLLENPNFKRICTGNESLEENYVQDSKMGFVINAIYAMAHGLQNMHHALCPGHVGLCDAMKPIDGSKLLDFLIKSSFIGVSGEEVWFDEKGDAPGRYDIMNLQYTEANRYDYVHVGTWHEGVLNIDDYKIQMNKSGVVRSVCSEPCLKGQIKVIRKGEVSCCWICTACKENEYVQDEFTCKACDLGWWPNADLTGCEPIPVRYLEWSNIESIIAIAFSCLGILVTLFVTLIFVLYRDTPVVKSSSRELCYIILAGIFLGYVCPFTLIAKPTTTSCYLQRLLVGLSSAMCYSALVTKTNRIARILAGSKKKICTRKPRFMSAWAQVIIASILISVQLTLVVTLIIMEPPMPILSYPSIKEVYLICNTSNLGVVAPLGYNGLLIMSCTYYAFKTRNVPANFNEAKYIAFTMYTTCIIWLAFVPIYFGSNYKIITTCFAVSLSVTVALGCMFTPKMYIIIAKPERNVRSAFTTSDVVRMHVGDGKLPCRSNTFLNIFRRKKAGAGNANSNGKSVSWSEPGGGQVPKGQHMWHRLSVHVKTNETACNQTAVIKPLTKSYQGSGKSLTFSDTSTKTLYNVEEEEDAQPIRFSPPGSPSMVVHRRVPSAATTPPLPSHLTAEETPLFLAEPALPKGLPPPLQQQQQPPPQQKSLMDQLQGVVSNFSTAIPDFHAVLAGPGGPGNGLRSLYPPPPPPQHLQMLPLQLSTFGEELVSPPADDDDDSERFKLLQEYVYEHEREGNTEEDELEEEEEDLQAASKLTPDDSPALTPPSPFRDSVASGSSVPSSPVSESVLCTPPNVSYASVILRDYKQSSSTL
As to the kind of experiment: IC50 determination: intracellular calcium mobilization (FLIPR) upon Quisqualate stimulation in CHO cells stably expressing hmGluR1. It is filed as cell-based. Conditions: against Quisqualate 1 μM (EC80), FLIPR calcium mobilization, read-out: IC50 Class. The essentials: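 CHO cells stably expressing hmGluR1 were kept overnight in DMEM high glucose with GPT and 1 mM pyruvate, then loaded 2 h with Calcium 3 dye.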
For orientation: Calcium flux is commonly read through the fluorescence of an indicator in the cells.
In the case of `Cc1ccc(-n2cnc3c(sc4nccc(NC5CCOCC5)c43)c2=O)cc1` [28DG], the pIC50 was 6.00 to 6.82.
`C=C(C)CNc1ccnc2sc3c(=O)n(-c4ccc5c(c4)OCO5)cnc3c12` [28FG]: the negative-log IC50 (pIC50) is 6.00 to 6.82.
Take `CN(C)c1cccc2sc3c(=O)n(-c4ccc(Cl)c(Cl)c4)cnc3c12` [103J]: the pIC50 was < 6.00.
On the same count and under the same terms, the value for `C=C(C)CNc1ncnc2sc3c(=O)n(C4CCCC4)cnc3c12` [95FL] was > 7.30; that for `O=c1c2sc3nccc(NCCCO)c3c2ncn1-c1ccc(Cl)cc1` [28GD] was > 7.30; that for `O=c1c2sc3nccc(NCCCO)c3c2ncn1-c1ccc2occc2c1` [28BF] was > 7.30.
Regarding `COc1ccc(-n2cnc3c(sc4nc(Cl)cc(NC5CC5)c43)c2=O)cc1` [57D], the negative-log IC50 (pIC50) is 6.00 to 6.82.
As to `CN(CCO)c1ccnc2sc3c(=O)n(-c4ccc5c(c4)CCO5)cnc3c12` [28CL], the pIC50 was > 7.30.
For `CN(C)c1cccc2sc3c(=O)n(-c4cccc(F)c4F)cnc3c12` [103O], the pIC50 was < 6.00.
As for `CC#Cc1ccnc2sc3c(=O)n(-c4ccc(Cl)cc4)cnc3c12` [compound 177], the pIC50 is < 6.00.
For the compound `COc1ccc(Nc2ncnc3sc4c(=O)n(-c5ccc(OC)cc5)cnc4c23)cc1` [190B], the pIC50 is 6.82 to 7.30.
Same read-out and setting: the figure for `CCNc1ccnc2sc3c(=O)n(-c4ccncc4)cnc3c12` [28EG] is 6.00 to 6.82; for `COc1cc(-n2cnc3c(sc4nccc(NC5CC5)c43)c2=O)ccc1F` [131N] it is 6.00 to 6.82.
Regarding `CNc1ccnc2sc3c(=O)n(-c4ccc(OC)cc4F)cnc3c12` [28BK], the pIC50 is > 7.30.
`C#CCNc1ncnc2sc3c(=O)n(-c4ccc(OC)cc4)cnc3c12` [95EI]: the pIC50 is > 7.30.
In the case of `CNc1c(Br)cnc2sc3c(=O)n(-c4ccc(Cl)cc4)cnc3c12` [compound 188], the negative logarithm of the IC50 (pIC50) was > 7.30.
As to `C=CCCOc1ccnc2sc3c(=O)n(-c4ccc(Br)cc4)cnc3c12` [66K], the pIC50 is 6.00 to 6.82.
As for `CCc1ccc(-n2cnc3c(sc4nccc(OC)c43)c2=O)cc1` [25G], the negative-log IC50 (pIC50) is 6.00 to 6.82.
Take `O=c1c2sc3nccc(NC4CC4)c3c2ncn1-c1ccc2c(c1)OCCO2` [28CK]: the pIC50 is > 7.30.
As for `CNc1c(C#N)cnc2sc3c(=O)n(-c4ccc(Cl)cc4)cnc3c12` [compound 189], the pIC50 is 6.82 to 7.30.
With `COc1ccc(-n2cnc3c(sc4nccc(NC5CC5)c43)c2=O)cc1F` [28HE], the pIC50 was > 7.30.
As to `C=C(C)CNc1ccnc2sc3c(=O)n(-c4ccc(C)cc4)cnc3c12` [28EW], the negative logarithm of the IC50 (pIC50) is > 7.30.
Same read-out and setting: the figure for `COCCNc1ccnc2sc3c(=O)n(-c4ccc(Cl)cc4)cnc3c12` [28GK] is > 7.30; for `Cc1ccc(-n2cnc3c(sc4ncc(C(N)=O)cc43)c2=O)cc1` [205C] it is 6.00 to 6.82.
`CN(CC(O)CO)c1ccnc2sc3c(=O)n(-c4ccc(F)cc4)cnc3c12` (stereo not drawn) [28HR]: the pIC50 is 6.00 to 6.82.
Take `Cc1ccc(-n2cnc3c(sc4nccc(CN(C)C)c43)c2=O)cc1` [169A]: the negative logarithm of the IC50 (pIC50) is < 6.00.
For the compound `CNc1ccnc2sc3c(=O)n(-c4cccc(Cl)c4)cnc3c12` [28CC], the pIC50 is 6.82 to 7.30.
Take `CNc1c(C#N)cnc2sc3c(=O)n(-c4ccc(OC)cc4)cnc3c12` [28FQ]: the negative-log IC50 (pIC50) is 6.82 to 7.30.
As for `Cc1ccc(-n2cnc3c(sc4nccc(CN(CC5CC5)CC5CC5)c43)c2=O)cc1` [169B], the pIC50 is < 6.00.
The same measure, in the same setting: the figure for `Cc1ccc(-n2cnc3c(sc4ncc(Br)c(Cl)c43)c2=O)cc1` [compound 171] is < 6.00.
On to `CNc1c(Cl)cnc2sc3c(=O)n(-c4ccc(Cl)cc4)cnc3c12` [compound 200], for which the negative logarithm of the IC50 (pIC50) was > 7.30.
As to `C#CCN(C)c1ccnc2sc3c(=O)n(-c4ccc(OC)cc4)cnc3c12` [28DU], the pIC50 is > 7.30.
With `Cc1ccc(-n2cnc3c(sc4ncc(C(=O)N(C)C)cc43)c2=O)cc1` [205A], the negative-log IC50 (pIC50) was < 6.00.
On to `O=c1c2sc3ncnc(NC4CC4)c3c2ncn1-c1ccc2occc2c1` [95AV], for which the pIC50 was > 7.30.
On to `COc1ccc(-n2cnc3c(sc4nccc(C(C)C)c43)c2=O)cc1` [29H], for which the pIC50 is > 7.30.
Regarding `C#CCNc1ncnc2sc3c(=O)n(-c4ccc5sccc5c4)cnc3c12` [95EP], the negative-log IC50 (pIC50) was 6.00 to 6.82.

The test is the same for the next values; noted with them: against Quisqualate 1 μM (EC80), FLIPR calcium mobilization, read-out: mGluR1 IC50.
On to `O=c1c2sc3nccc(NCCCO)c3c2ncn1-c1ccc(Cl)cc1` [28GD], for which the negative logarithm of the IC50 (pIC50) was 9.11.

The same test, now with this note: against Quisqualate 1 μM (EC80), class symbols, read-out: mGIuR 1 IC50.
As to `COc1ccc(C(=O)Nc2ccnc3sc4c(=O)n(C5CCCCC5)cnc4c23)cc1` [73F], the pIC50 is < 6.00.
Regarding `C#CCN(C)c1ccnc2sc3c(=O)n(-c4ccc(C)cc4)cnc3c12` [28AB], the pIC50 was > 7.30.
As to `CC#CCNc1ccnc2sc3c(=O)n(-c4ccc(C)cc4)cnc3c12` [28AD], the negative-log IC50 (pIC50) is 6.82 to 7.30.
The same measure, in the same setting: the figure for `C#CCn1cnc2c(sc3nccc(N(C)C)c32)c1=O` [7BH] is < 6.00; for `CNc1c(Br)cnc2sc3c(=O)n(C4CCCCC4)cnc3c12` [compound 44] it is > 7.30; for `COc1ccc(-n2cnc3c(sc4nccc(N(C)C)c43)c2=O)cc1` [7BG] it is > 7.30.
With `Cc1cc(N(C)C)c2c(n1)sc1c(=O)n(-c3ccc4c(c3)CCO4)cnc12` [7CN], the negative logarithm of the IC50 (pIC50) was 6.82 to 7.30.
Take `Cc1ccc(-n2cnc3c(sc4nccc(NCC(F)(F)F)c43)c2=O)cc1` [28AU]: the negative-log IC50 (pIC50) was > 7.30.
On the same count and under the same terms, the value for `CNc1c(Br)cnc2sc3c(=O)n(-c4ccc(OC)cc4)cnc3c12` [compound 152] was > 7.30; that for `CCc1cc(N(C)C)c2c(n1)sc1c(=O)n(-c3ccc(C)cc3)cnc12` [87B] was 6.82 to 7.30.
On to `CN(C)c1ccnc2sc3c(=O)n(N4CCCCC4)cnc3c12` [60A], for which the pIC50 was > 7.30.
`CC(=O)Nc1ccnc2sc3c(=O)n(C4CCCCC4)cnc3c12` [73B]: the negative-log IC50 (pIC50) is < 6.00.
For the compound `Cc1nc2ccc(-n3cnc4c(sc5nccc(N(C)C)c54)c3=O)cc2[nH]1` [7BV], the pIC50 was < 6.00.
`CCc1nc2c(sc3nccc(N(C)C)c32)c(=O)n1-c1ccc(OC)cc1` [116E]: the negative-log IC50 (pIC50) is 6.82 to 7.30.
With `O=c1c2sc3nccc(NC4CCCCC4)c3c2ncn1-c1ccc(Cl)cc1` [28B], the negative logarithm of the IC50 (pIC50) is < 6.00.
The same measure, in the same setting: the figure for `CNc1c([N+](=O)[O-])cnc2sc3c(=O)n(C4CCCCC4)cnc3c12` [compound 52] is 6.00 to 6.82; for `Cc1nc2cc(-n3cnc4c(sc5nccc(N(C)C)c54)c3=O)ccc2o1` [7BU] it is < 6.00.
With `O=c1c2sc3nccc(-n4cccn4)c3c2ncn1C1CCCCC1` [30B], the pIC50 is < 6.00.
For the compound `CN(C)c1ccnc2sc3c(=O)n(N)c(-c4ccccc4)nc3c12` [65E], the pIC50 was < 6.00.
On the same count and under the same terms, the figure for `CCc1ccc(-n2cnc3c(sc4nccc(N(C)C)c43)c2=O)cc1` [7BJ] is > 7.30.
Turning to `CN(C)c1ccnc2sc3c(=O)n(NC4CCCCC4)cnc3c12` [60G], the pIC50 was > 7.30.
Regarding `CN(C)c1ccnc2sc3c(=O)n(CCN4CCOCC4)cnc3c12` [15N], the negative-log IC50 (pIC50) is < 6.00.
On the same count and under the same terms, the value for `CN(C)c1ccnc2sc3c(=O)n(-c4csc5ccccc45)cnc3c12` [15AG] was > 7.30; that for `O=C(Nc1ccnc2sc3c(=O)n(C4CCCCC4)cnc3c12)c1ccc(Cl)cc1` [73G] was < 6.00.
Still for that read-out and setting: the value for `CN(C)c1ccnc2sc3c(=O)n(Cc4cccc(Cl)c4)cnc3c12` [7R] was 6.00 to 6.82; that for `CNc1ccnc2sc3c(=O)n(-c4ccc(OC)c(F)c4)cnc3c12` [7CA] was > 7.30; that for `CC(C)c1ccc(-n2cnc3c(sc4nccc(N(C)C)c43)c2=O)cc1` [7BA] was 6.00 to 6.82.
Regarding `CNc1c(C#N)cnc2sc3c(=O)n(C4CCCCC4)cnc3c12` [compound 48], the negative-log IC50 (pIC50) was 6.00 to 6.82.
On to `CN(C)c1c(Cl)cnc2sc3c(=O)n(C4CCCCC4)cnc3c12` [compound 41], for which the negative-log IC50 (pIC50) is 6.82 to 7.30.
Turning to `COc1cc(-n2cnc3c(sc4nccc(N(C)C)c43)c2=O)cc(OC)c1OC` [7AF], the negative logarithm of the IC50 (pIC50) is < 6.00.
With `CN(C)c1ccnc2sc3c(=O)n(CC4CC4)cnc3c12` [15B], the pIC50 was 6.00 to 6.82.
Take `Cc1ccc(-n2cnc3c(sc4nccc(N)c43)c2=O)cc1` [72H]: the negative-log IC50 (pIC50) was > 7.30.
`CN(C)c1ccnc2sc3c(=O)n([C@H]4CC[C@H](O)CC4)cnc3c12` [15T]: the pIC50 was 6.00 to 6.82.
For the compound `CC(=O)Oc1ccc(-n2cnc3c(sc4nccc(N(C)C)c43)c2=O)cc1` [compound 138], the pIC50 is > 7.30.
As for `Cc1ccc(-n2cnc3c(sc4nccc(C(N)=O)c43)c2=O)cc1` [compound 76], the negative-log IC50 (pIC50) was < 6.00.
With `O=c1c2sc3nccc(N4CC[C@@H](O)C4)c3c2ncn1C1CCCCC1` [28M], the pIC50 is < 6.00.
As to `CN(C)c1ccnc2c1c1ncn(C3CCCCC3)c(=O)c1n2C` [134G], the pIC50 was < 6.00.
The same measure, in the same setting: the value for `CCN(C)c1ccnc2sc3c(=O)n(-c4ccccc4)c(C)nc3c12` [113D] was > 7.30; that for `CCOC(=O)c1cnc2sc3c(=O)n(-c4ccc(C)cc4)cnc3c2c1` [144A] was 6.82 to 7.30; that for `O=C(Nc1ccnc2sc3c(=O)n(C4CCCCC4)cnc3c12)C1CCC1` [73D] was < 6.00.
Same read-out and setting: the value for `O=c1c2sc3nccc(N4CCOCC4)c3c2ncn1C1CCCCC1` [28O] was < 6.00; that for `CCNc1ccnc2sc3c(=O)n(-c4ccc5c(c4)OCO5)cnc3c12` [131E] was > 7.30; that for `CCN(C)c1ccnc2sc3c(=O)n(C4CCCCC4)cnc3c12` [28Y] was > 7.30.
For the compound `CN(C)c1ccnc2sc3c(=O)n(-c4ccc5c(c4)oc(=O)n5C)cnc3c12` [7AR], the negative logarithm of the IC50 (pIC50) was < 6.00.
Same read-out and setting: the figure for `CN(C)c1ccnc2sc3c(=O)n(-c4ccc(Br)cc4)cnc3c12` [7H] is > 7.30; for `Cc1cc(N(C)C)c2c(n1)sc1c(=O)n(-c3ccc(Cl)cc3)cnc12` [7CM] it is > 7.30.
Regarding `CN(C)c1ccnc2sc3c(=O)n(C4CCNCC4)cnc3c12` [15G], the pIC50 is < 6.00.
On the same count and under the same terms, the value for `CCN(C)c1ncnc2sc3c(=O)n(-c4ccc(OC(F)(F)F)cc4)cnc3c12` [95R] was > 7.30; that for `O=c1c2sc3nccc(C4CCCC4)c3c2ncn1C1CCCCC1` [29B] was < 6.00; that for `CCN(C)c1ccnc2sc3c(=O)n(-c4ccc(C)cc4)cnc3c12` [28AK] was > 7.30.
